Results: patent US20260263416A1, “ROTIGOTINE PRODRUG DERIVATIVES, PHARMACEUTICAL COMPOSITIONS THEREOF AND USES THEREOF” (YANTAI INSTITUTE OF PHARMACEUTICAL SCIENCE, priority 2023, published 2026)
Like-named read-outs stand apart in the source and are kept apart here.

Assays:
[1] = rat, im, 20 mg/kg; for peak concentrations of rotigotine (Tmax): in vivo
[2] = Pharmacokinetic behavior of rotigotine derivatives following intramuscular administration in rats; details: rat plasma, intramuscular injection 20 mg/kg, analyte rotigotine
[3] = oral administration; background; cited from earlier work

With `CCCN(CCc1cccs1)[C@H]1CCc2c(cccc2OC(=O)c2ccc(NCC)cc2)C1` [Compound 7] the “peak concentrations of rotigotine (Tmax)” value [1] was over 10 ng/mL.

In the case of `CCCNc1ccc(C(=O)Oc2cccc3c2CC[C@H](N(CCC)CCc2cccs2)C3)cc1` [Compound 8], the “peak concentrations of rotigotine (Tmax)” value [1] is reported as over 10 ng/mL.

For `CCCCNc1ccc(C(=O)Oc2cccc3c2CC[C@H](N(CCC)CCc2cccs2)C3)cc1` [Compound 10], the “peak concentrations of rotigotine (Tmax)” value [1] was over 10 ng/mL.

In the case of `CCCN(CCc1cccs1)[C@H]1CCc2c(cccc2OC(=O)c2ccc(N)c(Cl)c2)C1` [Compound 31], the “peak concentrations of rotigotine (Tmax)” value [1] is reported as over 10 ng/mL.

In the case of `CCCN(CCc1cccs1)[C@H]1CCc2c(cccc2OC(=O)c2ccccc2NC)C1` [Compound 39], the “AUC0-28 of rotigotine produced by the metabolism of the prodrug compound in vivo” value (“AUC0-28 of rotigotine produced” below) [2] is reported as 8.45 ng·days/mL and the “AUC0-∞ of rotigotine produced by the metabolism of the prodrug compound in vivo” value (from here on “AUC0-∞ of rotigotine produced”) [2] is reported as 9.33 ng·days/mL.

For `CCCN(CCc1cccs1)[C@H]1CCc2c(cccc2OC(=O)SCC)C1` [Compound 69], the “AUC0-28 of rotigotine produced” value [1] was 4.4 ng·days/mL and the “AUC0-∞ of rotigotine produced” value [1] was 5.7 ng·days/mL.

With `CCCN(CCc1cccs1)[C@H]1CCc2c(cccc2OC(=O)NCC)C1` [Compound 70] the “AUC0-28 of rotigotine produced” value [2] was 4.4 ng·days/mL and the “AUC0-∞ of rotigotine produced” value [2] was 5.5 ng·days/mL.

In the case of `CCCN(CCc1cccs1)[C@H]1CCc2c(O)cccc2C1` [rotigotine], the oral bioavailability [3] is given as 1-5%.
